For five compounds, Kd and EC50 results are on record in patent US12091402B2 (Avilar Therapeutics, Inc., priority 2021, dated 2024).

In assay [1] the target is IgG. In words: Affinity to IgG by surface plasmon resonance (SPR). It is filed as binding. As for the experimental part: Immobilization levels ranging from 1000-1300 resonance units (RU) are obtained. The running buffer is 10 mM HEPES, pH 7.4, 400 mM NaCl, 0.005% P20, […].
Assay [2] concerns the target T1, ASGPR receptor on the cell surface (HepG2 cells) (Homo sapiens, UniProt P07306).
T1 construct: host or cells: HepG2
T1 sequence (P07306 1-291): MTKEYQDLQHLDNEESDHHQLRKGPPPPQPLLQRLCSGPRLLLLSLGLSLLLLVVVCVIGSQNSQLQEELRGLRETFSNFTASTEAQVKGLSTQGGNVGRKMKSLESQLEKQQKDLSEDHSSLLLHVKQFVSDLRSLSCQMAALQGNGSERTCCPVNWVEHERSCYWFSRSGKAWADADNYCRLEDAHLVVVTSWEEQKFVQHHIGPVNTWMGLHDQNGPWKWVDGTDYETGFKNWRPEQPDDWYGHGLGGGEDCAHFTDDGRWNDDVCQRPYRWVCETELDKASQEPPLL
T1 sequence (P07307 1-311 partner): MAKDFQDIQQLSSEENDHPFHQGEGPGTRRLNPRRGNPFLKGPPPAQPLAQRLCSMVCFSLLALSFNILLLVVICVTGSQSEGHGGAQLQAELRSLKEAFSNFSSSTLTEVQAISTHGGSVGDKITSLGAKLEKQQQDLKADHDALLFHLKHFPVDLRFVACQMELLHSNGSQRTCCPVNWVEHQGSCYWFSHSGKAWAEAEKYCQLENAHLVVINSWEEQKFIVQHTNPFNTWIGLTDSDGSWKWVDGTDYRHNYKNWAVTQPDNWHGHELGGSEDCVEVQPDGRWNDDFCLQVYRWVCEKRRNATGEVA
In words: Ternary complex formation assay (flow cytometry, HepG2). It counts as cell-based. In short, it runs like this: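 HepG2 cells (1×10^5/well) incubated 1 h at 4 °C with 100 nM AF488-labeled anti-human IgG plus serial IgG-based degrader, or 100 nM AF488 rabbit anti-DNP plus serial DNP-based degrader. After washing, cell-associated AF488 MFI read by flow cytometry; peak MFI marks optimal degrader concentration for ternary complex.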
(In flow cytometry, cells or beads pass a laser one at a time.)

The test system of assay [3] is HepG2 cells. As to the kind of experiment: Cellular uptake assay of AF488-labeled antibody (HepG2). It is filed as cell-based. The note with it: HepG2 cells. The essentials:
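HepG2 cells given 100 nM AF488-labeled human IgG or DNP antibody plus serial dilutions of matching degrader (0.1% DMSO final), 6 h at 37° C. Methanol-fixed, DAPI-stained and imaged by high-content analysis. Value is the fraction of AF488-positive cells over total DAPI-counted cells.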

Assay [4] has as its target T2, ASGPR (Homo sapiens, UniProt P07306).
T2 sequence (P07306 1-291): T1 sequence (P07306 1-291)
In words: Affinity to ASGPR by surface plasmon resonance (SPR). In general terms: SPR reads the build-up and loss of mass on a sensor chip optically.
Protocol: Biotinylated ASGPR (20 μg/ml) was immobilized on SA sensor chips (GE Healthcare) at flow rate of 5 μl/min for 90 sec reaching an immobilization level ranging from 500-3000 resonance units (RU). The running buffer was 50 mM HEPES, pH7.5, 150 mM NaCl, 50 mM CaCl2), 0.01% P20, 3% DMSO. The concentration of compounds vary from 2 mM to 5 nM depending on Kd values. The compounds are diluted 2 or 3-fold with 8 concentration points. Solutions containing serially diluted compounds are injected at a flow rate of 40 μL/min for 150-300 sec followed by a 90-300 sec dissociation phase for each concentration. The surface was regenerated using 50 mM HEPES, pH 7.5, 150 mM NaCl, 5 mM EDTA, 0.01% P20, 3% DMSO.
Data was processed using the analysis software in Biacore 8K to perform background subtraction, double referencing, and solvent correction. Values of affinity expressed as the dissociation constants (Kd) were determined by fitting the steady state binding responses (RUs) as a function of the concentration ([Compound]) using the following equation: RU=RUmax/(KD+[Compound]), where RU max is the calculated maximal response. Where appropriate double-referenced data were fit to using a 1:1 binding model for kinetic analysis.

Setting [5] is: HepG2 cells, ternary complex formation, read-out: TCF EC50.
The mark [6] stands for this setting: Biacore 8K, 25° C., IgG on CM5 chip, read-out: IgG SPR Binding Kd.
[7] abbreviates: 100 nM AF488-labeled antibody, 37° C. for 6 hours, class symbols, read-out: Uptake Assay EC50.

Like-named read-outs stand apart in the source and are kept apart here.

Consider `CC(C)C[C@@H]1NC(=O)[C@H](Cc2cnc[nH]2)NC(=O)[C@H](Cc2c[nH]c3ccccc23)NC(=O)[C@H](C)NC(=O)[C@@H]2CSSC[C@H](NC(=O)[C@H](Cc3c[nH]c4ccccc34)NC(=O)[C@H](C(C)C)NC(=O)[C@H](CC(C)C)NC(=O)[C@H](CCC(=O)O)NC(=O)CNC1=O)C(=O)N[C@@H]([C@@H](C)O)C(=O)N1CCC[C@@H]1C(=O)N1C[C@H](NC(=O)COCCOCC(=O)NC[C@H]3OC[C@H](Nc4cncc(C(F)(F)F)n4)[C@@H](O)[C@H]3O)C[C@H]1C(=O)N[C@@H](CC(=O)O)C(=O)N2` [Compound 91], for which the dissociation constant (Kd) in assay [1] (SPR, read-out: IgG KD) is < 100 nM. Also, the EC50 in assay [2] (setting [5]) and in assay [3] (read-out: Uptake EC50) was < 100 nM each time.

Regarding `CC(C)C[C@@H]1NC(=O)[C@H](Cc2cnc[nH]2)NC(=O)[C@H](Cc2c[nH]c3ccccc23)NC(=O)[C@H](C)NC(=O)[C@@H]2CSSC[C@H](NC(=O)[C@H](Cc3c[nH]c4ccccc34)NC(=O)[C@H](C(C)C)NC(=O)[C@H](CC(C)C)NC(=O)[C@H](CCC(=O)O)NC(=O)CNC1=O)C(=O)N[C@@H]([C@@H](C)O)C(=O)N1CCC[C@@H]1C(=O)N1C[C@@H](NC(=O)CCCc3cn(CCCCCC(=O)NC(COCCC(=O)NCCOCCOCCOCCOC[C@H]4OC[C@H](Nc5cncc(C(F)(F)F)n5)[C@@H](O)[C@H]4O)COCCC(=O)NCCOCCOCCOCCOC[C@H]4OC[C@H](Nc5cncc(C(F)(F)F)n5)[C@@H](O)[C@H]4O)nn3)C[C@H]1C(=O)N[C@@H](CC(=O)O)C(=O)N2` [Compound 52], in assay [1] (setting [6]), the Kd is < 100 nM. Also, the concentration for a half-maximal effect (EC50) in assay [2] (HepG2 cells, 100 nM AF488-labeled antibody, 1 hour at 4° C., class symbols, read-out: Ternary Complex EC50) is < 100 nM; in assay [3] (setting [7]) it was < 100 nM.

Turning to `CC(C)C[C@@H]1NC(=O)[C@H](Cc2c[nH]cn2)NC(=O)[C@H](Cc2c[nH]c3ccccc23)NC(=O)[C@H](C)NC(=O)[C@@H]2CSSC[C@H](NC(=O)[C@H](Cc3c[nH]c4ccccc34)NC(=O)[C@H](C(C)C)NC(=O)[C@H](CC(C)C)NC(=O)[C@H](CCC(=O)O)NC(=O)CNC1=O)C(=O)N[C@@H]([C@@H](C)O)C(=O)N1CCC[C@@H]1C(=O)N1C[C@@H](NC(=O)COCCOCC(=O)NC(COCCC(=O)NCCOCCOCCOCCOC[C@H]3OC[C@H](Nc4cncc(C(F)(F)F)n4)[C@@H](O)[C@H]3O)COCCC(=O)NCCOCCOCCOCCOC[C@H]3OC[C@H](Nc4cncc(C(F)(F)F)n4)[C@@H](O)[C@H]3O)C[C@H]1C(=O)N[C@@H](CC(=O)O)C(=O)N2` [Compound 41], in assay [1] (setting [6]), the Kd is < 100 nM. The EC50 in assay [2] and in assay [3] (setting [7]) was < 100 nM in each case.

In the case of `CC(C)C[C@@H]1NC(=O)[C@H](Cc2c[nH]cn2)NC(=O)[C@H](Cc2c[nH]c3ccccc23)NC(=O)[C@H](C)NC(=O)[C@@H](NC(=O)[C@H](CC(=O)O)NC(=O)CCOCCOCCOCCOCCNC(=O)CCCc2cn(CCCCCC(=O)NC(COCCC(=O)NCCOCCOCCOCCOC[C@@H]3CC[C@@H](Nc4nccc(C(F)(F)F)n4)CO3)COCCC(=O)NCCOCCOCCOCCOC[C@@H]3CC[C@@H](Nc4nccc(C(F)(F)F)n4)CO3)nn2)CSSC[C@@H](C(=O)N[C@H](C(N)=O)[C@@H](C)O)NC(=O)[C@H](Cc2c[nH]c3ccccc23)NC(=O)[C@H](C(C)C)NC(=O)[C@H](CC(C)C)NC(=O)[C@H](CCC(=O)O)NC(=O)CNC1=O` [Compound 87], the EC50 in assay [2] (setting [5]) and in assay [3] (read-out: Uptake EC50) was > 1000 nM in each case. Further, in assay [4], the Kd was > 1000 nM.

With `CC(C)C[C@@H]1NC(=O)[C@H](Cc2c[nH]cn2)NC(=O)[C@H](Cc2c[nH]c3ccccc23)NC(=O)[C@H](C)NC(=O)[C@@H](NC(=O)[C@H](CC(=O)O)NC(=O)CCOCCOCCOCCOCCNC(=O)CCCc2cn(CCCCCC(=O)NC(COCCC(=O)NCCOCCOCCOCCOC[C@H]3OC[C@H](Nc4nccc(C(F)(F)F)n4)[C@@H](O)[C@H]3O)(COCCC(=O)NCCOCCOCCOCCOC[C@H]3OC[C@H](Nc4nccc(C(F)(F)F)n4)[C@@H](O)[C@H]3O)COCCC(=O)NCCOCCOCCOCCOC[C@H]3OC[C@H](Nc4nccc(C(F)(F)F)n4)[C@@H](O)[C@H]3O)nn2)CSSC[C@@H](C(=O)N[C@H](C(N)=O)[C@@H](C)O)NC(=O)[C@H](Cc2c[nH]c3ccccc23)NC(=O)[C@H](C(C)C)NC(=O)[C@H](CC(C)C)NC(=O)[C@H](CCC(=O)O)NC(=O)CNC1=O` [Compound 90], the EC50 in assay [2] and in assay [3] (read-out: Uptake EC50) was < 100 nM each time. Moreover, the Kd in assay [4] was < 100 nM.

In general, Kd refers to the free concentration of one partner at which half of the binding sites on the other are occupied at equilibrium, for simple one-to-one binding. As a reminder, the EC50 is the concentration that produces a half-maximal response.
